This is an account of results in patent publication US10849901B2, “Arf6 inhibitors and methods of synthesis and use thereof” (Navigen, Inc., priority 2014, dated 2020).

The term IC50 denotes the concentration that inhibits the measured activity by half. What is called inhibition is the share of the control response that was lost under treatment.

The structures appear in SMILES notation. Where two headings read alike, the source gives them in different places.

The assay deals with Arf6 (Homo sapiens (Human), UniProt P62330). Briefly: Fluorometric assay for Arf6 nucleotide exchange catalyzed by ARNO Sec7 domain (GTP-BODIPY FL). The assay is classed as biochemical. How it is done: FIGS. 1A-1D: Fluorometric high throughput assay for Arf6 nucleotide exchange catalyzed by ARNO Sec7 domain. FIG. 1A: Principle of the assay. FIG. 1B: SDS-PAGE analysis of N-terminally His-tagged Arf6(14-175) and ARNO(50-255) purified from the E. coli cultures by immobilized metal affinity chromatography. FIG. 1C: Correlation between signal intensity and ARNO concentration. The assay was performed using 50 mM Tris-HCl, pH 7.5, 1 mM MgCl2, 0.01% TX-100, 1% DMSO, 50 nM GTP-BODIPY FL, supplemented with ARNO-Sec7 at indicated concentrations in the absence or in the presence of 0.2 μM Arf6-GDP. Fluorescence intensities were monitored using a Synergy 4 plate reader (BioTek) at the excitation and emission wavelengths of 490 nm and 520 nm, respectively. FIG. 1D: Time course of apparent inhibitory potency of GDP. The assay was performed in automated mode using a Matrix PlateMate liquid handler.
Sequence of Arf6 (P62330 14-175): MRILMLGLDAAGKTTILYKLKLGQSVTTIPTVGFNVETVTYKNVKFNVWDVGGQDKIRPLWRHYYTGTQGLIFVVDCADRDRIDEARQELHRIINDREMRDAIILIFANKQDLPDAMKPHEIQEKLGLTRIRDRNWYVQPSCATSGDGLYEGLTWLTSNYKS
The primary biochemical assay uses a fluorometric assay for monitoring the replacement of bound nucleotide with a fluorogenic GTP derivative bearing a BODIPY FL moiety, allowing for the identification of compounds that can inhibit this exchange (see FIG. 1A). In certain embodiments, the methods disclosed herein may exploit the reduction of intramolecular fluorescence quenching of the modified nucleotide upon its binding to the target protein (see, e.g., McEwen D P, Gee K R, Kang H C, Neubig R R. Fluorescent BODIPY-GTP analogs: real-time measurement of nucleotide binding to G proteins. Anal Biochem. 2001 Apr. 1; 291(1): 109-17).
The fluorometric assay formatted for 96-well microtiter plates has passed quality control based on the following criteria: i) S/B ratio of 4-fold and Z′-factor of 0.61; ii) linear correlation between signal intensity and ARNO concentration (see FIG. 1C); iii) sufficiently reproducible inhibitory effects of the reference inhibitor GDP for assay durations up to at least 1 hour (see FIG. 1D); and iv) lack of apparent fluorescence quenchers among 400 randomly selected compounds. The assay is amenable to automation with a throughput of approximately 5,000 data points per 8 hours.

The mark [1] stands for this setting: 200 nM Arf6 assay, read-out: IC50 (μM) 200 nM Arf6.
Where [2] appears, read: 20 nM Arf6 assay, read-out: IC50 (μM) 20 nM Arf6.

As to `O=c1cc(Cc2ccccc2)[nH]c2c(-c3ccc(Cl)cc3)c(Cc3ccccc3)nn12` [Compound 99], the IC50 under setting [1] stood at 11 µM.
Regarding `O=C1NC(=S)N(c2cccc(Cl)c2)C(=O)/C1=C/c1cccn1-c1ccc(Cl)cc1` [Compound 118], the IC50 (IC50 (μM) 200 nM Arf6, 200 nM Arf6 assay) came to 1.8 µM.
As to `N#Cc1ccc(-c2cc(=O)n3nc(C4CCOCC4)c(-c4ccc(Cl)cc4)c3[nH]2)cc1` [Compound 112], the 50% inhibitory concentration (IC50) under setting [2] is 20 µM.
For the compound `Cc1nn2c(=O)cc(-c3cccc(-c4ccncc4)c3)[nH]c2c1-c1ccc(Cl)cc1` [Compound 70], the IC50 under setting [2] was 4.1 µM.
With `CN(C)C(=O)c1ccc(-c2cc(=O)n3nc(Cc4ccccc4)c(-c4ccc(Cl)cc4)c3[nH]2)cc1` [Compound 56], the IC50 runs as follows: under setting [2], 3.2 µM; under setting [1], 2.6 µM.
As for `Cc1nc2c(=O)[nH]c(-c3ccc([N+](=O)[O-])cc3)nn2c1-c1ccc(Cl)cc1` [Compound 69], the IC50 under setting [2] came to 4 µM.
On to `O=C1NC(=S)S/C1=C/c1ccc(N2N=C(c3ccccc3)CC2c2ccccc2)cc1` (centres unmarked) [Compound 121], for which the IC50 under setting [2] worked out at 3.7 µM.
Consider `O=c1cc(-c2ccc([N+](=O)[O-])cc2)[nH]c2c(-c3ccc(Cl)cc3)c(Cc3ccncc3)nn12` [Compound 46], for which the IC50 under setting [2] worked out at 2.4 µM and the IC50 under setting [1] was determined as 3.2 µM.
For the compound `Nc1ccc(-c2cc(=O)n3nc(C(F)(F)F)c(-c4ccc(Cl)cc4)c3[nH]2)cc1` [Compound 78], the IC50 under setting [2] was determined as 5.2 µM.
Regarding `O=c1cc(-c2ccc(Br)cc2)[nH]c2c(-c3ccc(Cl)cc3)c(C(F)(F)F)nn12` [Compound 15], the half-maximal inhibitory concentration (IC50) under setting [2] amounted to 1.1 µM.
For `Cc1nn2c(=O)cc(-c3ccc([N+](=O)[O-])cc3)[nH]c2c1C1CCCC1` [Compound 110], the IC50 under setting [2] was determined as 19 µM.
The same measure, in the same setting: in the case of `Fc1ccc(C2CC(c3cccs3)=NN2c2nc(-c3ccc(-c4ccccc4)cc3)cs2)cc1` (centres unmarked) [Compound 136] it was 16 µM.
Regarding `N#Cc1c(SCc2cc(=O)[nH]c(=O)[nH]2)nc2c(c1-c1ccccc1)CC/C2=C\c1ccccc1` [Compound 117], under setting [1], the IC50 stood at 1.5 µM.
Turning to `Cc1nn2c(=O)cc(-c3ccc([N+](=O)[O-])cc3)[nH]c2c1-c1ccc(Cl)cc1Cl` [Compound 76], under setting [2], the IC50 was 4.5 µM.
For the compound `Fc1ccc(C2=CCN(c3nc(-c4ccncc4)nc4c3CNC4)CC2)cc1` [Compound 142], under setting [2], the IC50 was determined as 1.2 µM.
Consider `O=[N+]([O-])c1ccc(C2=CC(O)n3nc(-c4cccc(Cl)c4)cc3N2)cc1` (centres unmarked) [Compound 100], for which the IC50 stood at 13 µM under setting [2] and 10 µM under setting [1].
Take `Cc1nn2c(=O)cc(-c3ccc([N+](=O)[O-])cc3)[nH]c2c1-c1ccc(Cl)cc1Cl` [Compound 36]: the IC50 under setting [2] was 1.7 µM.
Still for that read-out and setting: in the case of `CC(C)(C)c1nn2c(=O)cc(-c3cccc(C(=O)O)c3)[nH]c2c1-c1ccc(Cl)cc1` [Compound 86] it was 6.6 µM.
As for `O=c1cc(-c2ccc([N+](=O)[O-])cc2)[nH]c2c(-c3ccc(Cl)cc3)c(C(F)(F)F)nn12` [Compound 33], the 50% inhibitory concentration (IC50) was determined as 1.6 µM under setting [2] and 2.6 µM under setting [1].
For `O=C(O)c1ccc(C2Nc3c(Br)cccc3C3C=CCC32)cc1` (centres unmarked) [Compound 127], the IC50 under setting [1] was 8 µM.
For the compound `CC(=O)Nc1ccc(-c2cc(=O)n3nc(C(F)(F)F)c(-c4ccc(Cl)cc4)c3[nH]2)cc1` [Compound 67], the IC50 under setting [2] stood at 3.7 µM.
As for `N#Cc1ccc(-c2cc(=O)n3nc(C4CC4)c(-c4ccc(Cl)cc4)c3[nH]2)cc1` [Compound 58], the IC50 under setting [2] stood at 3.2 µM.
Consider `Cn1c(N)c(C(=O)COC(=O)c2ccccc2SCc2ccc(C#N)cc2)c(=O)[nH]c1=O` [Compound 134], for which the IC50 under setting [2] turned out to be 13 µM.
Same read-out and setting: in the case of `CC(C)(C)c1nn2c(=O)cc(-c3ccccn3)[nH]c2c1-c1ccc(Cl)cc1` [Compound 82] it was 6 µM.
Turning to `O=c1cc(Cc2ccccc2)[nH]c2c(-c3ccccc3)c(-c3ccccc3)nn12` [Compound 89], under setting [1], the IC50 was found to be 7 µM.
Turning to `Cc1nn2c(=O)cc(-c3ccc([N+](=O)[O-])cc3)[nH]c2c1-c1ccc(Oc2ccccc2)cc1` [Compound 30], under setting [2], the IC50 turned out to be 1.5 µM.
In the case of `N#Cc1ccc(-c2cc(=O)c3nc(C4CC4)c(-c4ccc(Cl)cc4)n3[nH]2)cc1` [Compound 108], under setting [2], the IC50 came out at 16 µM.
On the same count and under the same terms, next, `O=c1cc(-c2cccc(-c3cccnc3)c2)[nH]c2c(-c3ccc(Cl)c(Cl)c3)c(C(F)(F)F)nn12` [Compound 1]: 0.25 µM.
Still for that read-out and setting: next, `O=C(Nc1cccc(-c2cc(=O)n3nc(C(F)(F)F)c(-c4ccc(Cl)cc4)c3[nH]2)c1)c1ccccc1` [Compound 111]: 20 µM.
Consider `CCCCC1CCCN1c1cc(C2CCNCC2)ncn1` (centres unmarked) [Compound 144], for which the inhibition at 10 µM (20 nM assay, 10 μM concentration) is approximately 35%.
For the compound `Cc1cccc(-n2c(/C=C/c3cccnc3)nc3ccccc3c2=O)c1` [Compound 122], under setting [1], the IC50 is 4.7 µM.
Regarding `O=c1nc(/C=C/c2ccc(-c3cc(Cl)cc(Cl)c3)o2)cc(C(F)(F)F)[nH]1` [Compound 120], the IC50 under setting [2] is 3.4 µM.
For the compound `O=C1c2ccccc2C(=O)C1C1=NC2c3ccccc3OC2S1` (centres unmarked) [Compound 141], the IC50 under setting [1] stood at 31 µM.
With `Cc1nn2c(=O)cc(-c3ccc(NC(=O)Cc4ccccc4)cc3)[nH]c2c1-c1ccc(Cl)cc1` [Compound 41], under setting [2], the IC50 amounted to 1.9 µM.
In the case of `CN(C)c1ccc(-c2cccc(-c3cc(=O)n4nc(C(F)(F)F)c(-c5ccc(Cl)cc5)c4[nH]3)c2)cn1` [Compound 19], under setting [2], the IC50 worked out at 1.1 µM.
Same read-out and setting: next, `Nc1scc2c(-c3nnc(Nc4ccccc4)s3)nn(-c3ccc([N+](=O)[O-])cc3)c(=O)c12` [Compound 123]: 5.1 µM; `O=C1NC(=O)c2ccccc2/C1=C/c1cnn(Cc2ccccc2)c1` [Compound 124]: 5.4 µM.
As for `Cc1nn2c(=O)cc(C3CCCCC3)[nH]c2c1-c1ccc(Cl)cc1` [Compound 103], the IC50 under setting [2] was determined as 14 µM.
Same read-out and setting: next, `CC(c1ccccc1)c1nn2c(=O)cc(-c3ccc([N+](=O)[O-])cc3)[nH]c2c1-c1ccc(Cl)cc1` (centres unmarked) [Compound 28]: 1.4 µM.
Take `O=c1cc(Cc2cccnc2)[nH]c2c(-c3ccc(Cl)cc3)c(C(F)(F)F)nn12` [Compound 102]: the IC50 reads like this: under setting [2], 14 µM; under setting [1], 17 µM.
For the compound `O=c1c(Cl)c(-c2ccccc2)[nH]c2c(-c3ccc(Cl)cc3)c(Cc3ccccc3)nn12` [Compound 49], the 50% inhibitory concentration (IC50) under setting [2] came out at 2.5 µM.
Turning to `Cc1nn2c(=O)cc(-c3ccc([N+](=O)[O-])cc3)[nH]c2c1-c1ccc(Cl)c(F)c1` [Compound 73], the IC50 under setting [2] worked out at 4.2 µM.
As for `O=c1c(Cl)c(-c2ccc([N+](=O)[O-])cc2)[nH]c2c(-c3ccc(Cl)cc3)c(Cc3ccccc3)nn12` [Compound 24, 2-benzyl-6-chloro-3-(4-chlorophenyl)-5-(4-nitrophenyl)-4H-pyrazolo[1,5-a]pyrimidin-7-one], the IC50 is 1.3 µM under setting [2] and 1.4 µM under setting [1].
Turning to `COc1ccc(-c2c(Cc3ccccc3)nn3c(=O)cc(-c4ccc([N+](=O)[O-])cc4)[nH]c23)cc1` [Compound 55], under setting [1], the IC50 came to 3.1 µM.
`CC(C)(C)c1nn2c(=O)cc(-c3ccccc3C#N)[nH]c2c1-c1ccc(Cl)cc1` [Compound 32]: under setting [2], the IC50 came to 1.5 µM.
As for `CC(C)(C)c1nn2c(=O)cc(-c3cccc(C#N)c3)[nH]c2c1-c1ccc(Cl)cc1` [Compound 44], the concentration for half-maximal inhibition (IC50) under setting [2] amounted to 2.2 µM.
On to `Cc1nn2c(=O)cc(-c3cccc(-c4cccnc4)c3)[nH]c2c1-c1ccc(Cl)cc1` [Compound 53], for which the half-inhibitory concentration (IC50) under setting [2] was 3 µM.
In the case of `O=c1cc(-c2ccc([N+](=O)[O-])cc2)[nH]c2c(-c3ccc(Cl)c(Cl)c3)c(Cc3ccccc3)nn12` [Compound 23], the IC50 under setting [2] was 1.2 µM.
Same read-out and setting: next, `O=c1cc(-c2cccc(Br)c2)[nH]c2c(-c3ccc(Cl)cc3)c(C(F)(F)F)nn12` [Compound 34]: 1.6 µM; `CC(C)CC(=O)Nc1ccc(-c2cc(=O)n3nc(C(F)(F)F)c(-c4ccc(Cl)cc4)c3[nH]2)cc1` [Compound 35]: 1.7 µM; `Cc1nn2c(=O)cc(-c3ccc([N+](=O)[O-])cc3)[nH]c2c1-c1ccc(-c2ccccc2)cc1` [Compound 18]: 1.1 µM.
Take `O=C(O)c1ccccc1-c1cc(=O)n2nc(C(F)(F)F)c(-c3ccc(Cl)cc3)c2[nH]1` [Compound 92]: the IC50 under setting [2] was 8.1 µM.
On to `NC(=O)c1ccc(-c2cc(=O)n3nc(Cc4ccccc4)c(-c4ccc(Cl)cc4)c3[nH]2)cc1` [Compound 66], for which the half-inhibitory concentration (IC50) is, setting by setting: under setting [2], 3.7 µM; under setting [1], 2.8 µM.
`Cc1ccc(-c2cccc(-c3cc(=O)n4nc(C(F)(F)F)c(-c5ccc(Cl)cc5)c4[nH]3)c2)cn1` [Compound 12]: the IC50 under setting [2] stood at 0.96 µM.
As to `CCOc1ccc(-c2nn(-c3ccccc3)cc2/C=C2\SC(=S)N(CCC(=O)O)C2=O)cc1C` [Compound 116], the IC50 under setting [1] worked out at 1.4 µM.
